Broadly, the IC50 is the midpoint of a concentration-inhibition curve. The GI50 is the concentration that inhibits growth by half.

The target in one experiment is T1, recombinant Aurora A (Homo sapiens, UniProt O14965).
T1 construct: purchased Upstate, Lake Placid, N.Y
T1 sequence (O14965 1-403): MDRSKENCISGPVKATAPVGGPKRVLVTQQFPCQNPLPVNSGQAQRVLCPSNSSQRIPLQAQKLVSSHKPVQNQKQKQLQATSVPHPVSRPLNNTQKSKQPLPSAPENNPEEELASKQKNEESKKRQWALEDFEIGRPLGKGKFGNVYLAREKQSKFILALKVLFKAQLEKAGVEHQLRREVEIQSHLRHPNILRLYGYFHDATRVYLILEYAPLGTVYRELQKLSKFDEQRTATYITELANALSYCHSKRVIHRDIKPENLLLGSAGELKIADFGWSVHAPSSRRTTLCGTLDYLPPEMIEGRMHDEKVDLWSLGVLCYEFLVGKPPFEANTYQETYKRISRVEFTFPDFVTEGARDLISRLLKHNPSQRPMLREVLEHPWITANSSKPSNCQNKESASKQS
Briefly: Aurora A (Aurora 2) inhibition assay, Z'-Lyte kinase assay. The experiment is classed as biochemical. The following applies: group with IC50 greater than 100 nM; ATP 10 μM, 1 h. The method, boiled down: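 Z'-Lyte FRET assay: Aurora A (200-500 ng/mL final), Ser/Thr 1 peptide (2 μM) and ATP (10 μM) in 50 mM HEPES pH 7.5, 10 mM MgCl2, 5 mM EGTA, 0.05% Brij-35, 2 mM DTT, 1 h at room temperature. Coumarin/fluorescein emission ratio converted to percent phosphorylation; dose-response curves plotted.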

The subject of the next experiment is HCT116 cells. Briefly: Whole cell cytotoxicity assay, Sulforhodamine B. The experiment is classed as cell-based. To be noted: Homo sapiens, HCT-116, HCT116, 96 hours incubation, SRB; for IC50: read-out: IC50 values in this assay (HCT116 cell growth); for GI50: read-out: GI50 HCT116 cell growth. The method, boiled down: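 HCT116 cells (500/well) in DMEM/10% FBS/2 mM glutamine were preincubated 24 h, then exposed to compound for 96 h at 37 °C, 5% CO2, in duplicate. Cells were fixed with TCA and stained with sulforhodamine B (A570). GI50, TGI and LC50 were derived relative to a time-zero plate and an untreated control.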

Experiment [1] concerns the target T2, N-terminal His-tagged human Src (Homo sapiens, UniProt P12931).
T2 construct: His (N); purchased Upstate USA Inc, 706 Forest Street, Charlottesville, Va
Briefly: Src kinase inhibition assay (33P-ATP filter assay). Type of experiment: biochemical.

Where [2] appears, read: group with IC50 greater than 100 nM.

Bounds are passed on as bounds.

T2 sequence (P12931 whole entry): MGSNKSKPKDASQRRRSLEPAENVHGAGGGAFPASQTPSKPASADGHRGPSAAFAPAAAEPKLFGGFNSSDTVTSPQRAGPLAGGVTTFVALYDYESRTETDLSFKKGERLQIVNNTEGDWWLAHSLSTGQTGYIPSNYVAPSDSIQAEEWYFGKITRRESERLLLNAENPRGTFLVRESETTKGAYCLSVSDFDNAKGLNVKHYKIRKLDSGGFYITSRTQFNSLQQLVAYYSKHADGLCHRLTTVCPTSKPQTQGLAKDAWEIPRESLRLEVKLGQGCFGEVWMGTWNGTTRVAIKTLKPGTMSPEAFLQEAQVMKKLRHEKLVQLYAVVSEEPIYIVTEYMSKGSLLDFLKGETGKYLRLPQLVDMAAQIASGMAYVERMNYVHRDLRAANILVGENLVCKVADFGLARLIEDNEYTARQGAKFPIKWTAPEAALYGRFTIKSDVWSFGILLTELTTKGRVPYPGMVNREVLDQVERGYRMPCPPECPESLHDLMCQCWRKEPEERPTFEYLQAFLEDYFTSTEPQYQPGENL

As for `COCCN(C)c1cc(Nc2cc(C)[nH]n2)nc(-c2ccccc2C(F)(F)F)n1` [Example 126, N^4-(2-methoxyethyl)-N^4-methyl-N^6-(5-methyl-1H-pyrazol-3-yl)-2-(2-(trifluoromethyl)phenyl)pyrimidine-4,6-diamine], the results for the IC50 at recombinant Aurora A and in the experiment on HCT116 cells were not above 1000 nM and 1000 to 10000 nM, respectively.

In the case of `Cc1cc(Nc2cc(N3CCN(C)CC3)nc(-c3ccc(C(F)(F)F)cc3)n2)n[nH]1` [Compound 100], the values for the concentration for half-maximal inhibition (IC50) (in experiment [1] (setting [2]); at recombinant Aurora A; in the experiment on HCT116 cells) were not above 1000 nM, not above 1000 nM and 1000 to 10000 nM, respectively.

`Cc1cc(Nc2cc(N(C)CCN(C)C)nc(-c3ccc4c(c3)OCO4)n2)n[nH]1` [Example 146, 2-(benzo[d][1,3]dioxol-5-yl)-N^4-(2-(dimethylamino)ethyl)-N^4-methyl-N^6-(5-methyl-1H-pyrazol-3-yl)pyrimidine-4,6-diamine]: the results for the half-inhibitory concentration (IC50) (in experiment [1] (40 minutes at room temperature); on recombinant Aurora A) were not above 100 nM and not above 1000 nM, respectively. Moreover, the GI50 with HCT116 cells is not above 1000 nM.

For `COCCN(C)c1cc(Nc2cc(C)[nH]n2)nc(-c2cccc3c2OCCO3)n1` [Example 150, 2-(2,3-dihydrobenzo[b][1,4]dioxin-5-yl)-N^4-(2-methoxyethyl)-N^4-methyl-N^6-(5-methyl-1H-pyrazol-3-yl)pyrimidine-4,6-diamine], the IC50 is not above 1000 nM on recombinant Aurora A and 1000 to 10000 nM in the experiment with HCT116 cells.

For `Cc1cc(Nc2cc(NC3CCOCC3)nc(-c3cccc(C(F)(F)F)c3)n2)n[nH]1` [Compound 80, N^4-(5-methyl-1H-pyrazol-3-yl)-N^6-(tetrahydro-2H-pyran-4-yl)-2-(3-(trifluoromethyl)phenyl)pyrimidine-4,6-diamine], the IC50 in experiment [1] (setting [2]) is not above 1000 nM; at recombinant Aurora A it was not above 1000 nM; with HCT116 cells it was 1000 to 10000 nM.

In the case of `Cc1cc(Nc2cc(N(C)CCN(C)C)nc(-c3cccc(N(C)C)c3)n2)n[nH]1` [Compound 107], the half-inhibitory concentration (IC50) in experiment [1] (40 minutes at room temperature) is not above 100 nM; at recombinant Aurora A, not above 1000 nM; in the experiment on HCT116 cells, 1000 to 10000 nM.

In the case of `Cc1cc(Nc2cc(N(C)CCN(C)C)nc(-c3ccc(C(C)(C)C)cc3)n2)n[nH]1` [Compound 103, 2-(4-tert-butylphenyl)-N^4-(2-(dimethylamino)ethyl)-N^4-methyl-N^6-(5-methyl-1H-pyrazol-3-yl)pyrimidine-4,6-diamine], the IC50 was not above 100 nM in experiment [1] (40 minutes at room temperature) and not above 1000 nM at recombinant Aurora A. In addition, in the experiment with HCT116 cells, the concentration for 50% growth inhibition (GI50) was not above 1000 nM.

As for `Cc1cc(Nc2cc(NC3CCOCC3)nc(-c3ccccc3C(F)(F)F)n2)n[nH]1` [Compound 81, N^4-(5-methyl-1H-pyrazol-3-yl)-N^6-(tetrahydro-2H-pyran-4-yl)-2-(2-(trifluoromethyl)phenyl)pyrimidine-4,6-diamine], the values for the IC50 (in experiment [1] (setting [2]); at recombinant Aurora A; in the experiment on HCT116 cells) were not above 1000 nM, not above 1000 nM and 1000 to 10000 nM, respectively.

Turning to `Cc1cc(Nc2cc(N3CCN(C)CC3)nc(-c3ccccc3C(F)(F)F)n2)n[nH]1` [Compound 102, N-(5-methyl-1H-pyrazol-3-yl)-6-(4-methylpiperazin-1-yl)-2-(2-(trifluoromethyl)phenyl)pyrimidin-4-amine], the IC50 was not above 1000 nM in experiment [1] (setting [2]), not above 1000 nM on recombinant Aurora A and 1000 to 10000 nM with HCT116 cells.

Take `Cc1cc(Nc2cc(NC3CCOCC3)nc(-c3ccc(C(F)(F)F)cc3)n2)n[nH]1` [Compound 79, N^4-(5-methyl-1H-pyrazol-3-yl)-N^6-(tetrahydro-2H-pyran-4-yl)-2-(4-(trifluoromethyl)phenyl)pyrimidine-4,6-diamine]: the IC50 in experiment [1] (setting [2]) is not above 1000 nM; at recombinant Aurora A, not above 1000 nM; in the experiment with HCT116 cells, 1000 to 10000 nM.

In the case of `Cc1cc(Nc2cc(N3CCN(C)CC3)nc(-c3cc(F)cc(Cl)c3)n2)n[nH]1` [Compound 97], the IC50 (in experiment [1] (setting [2]); on recombinant Aurora A) was not above 1000 nM each time. Further, the 50% growth inhibitory concentration (GI50) in the experiment on HCT116 cells is not above 1000 nM.

`COCCN(C)c1cc(Nc2cc(C)[nH]n2)nc(-c2cccc(OC)c2)n1` [Compound 68, N^4-(2-methoxyethyl)-2-(3-methoxyphenyl)-N^4-methyl-N^6-(5-methyl-1H-pyrazol-3-yl)pyrimidine-4,6-diamine]: the IC50 (in experiment [1] (setting [2]); at recombinant Aurora A) was not above 1000 nM each time. Also, in the experiment with HCT116 cells, the GI50 is not above 1000 nM.

As for `Cc1cc(Nc2cc(NC3CCOCC3)nc(-c3cccc4ccccc34)n2)n[nH]1` [Example 127, N^4-(5-methyl-1H-pyrazol-3-yl)-2-(naphthalen-1-yl)-N^6-(tetrahydro-2H-pyran-4-yl)pyrimidine-4,6-diamine], the IC50 in experiment [1] (setting [2]) was not above 1000 nM; at recombinant Aurora A, not above 1000 nM; in the experiment with HCT116 cells it was 1000 to 10000 nM.

In the case of `Cc1cc(Nc2cc(N(C)CCN(C)C)nc(-c3cccc(C(F)(F)F)c3)n2)n[nH]1` [Compound 113, N^4-(2-(dimethylamino)ethyl)-N^4-methyl-N^6-(5-methyl-1H-pyrazol-3-yl)-2-(3-(trifluoromethyl)phenyl)pyrimidine-4,6-diamine], the IC50 in experiment [1] (40 minutes at room temperature) was not above 100 nM; on recombinant Aurora A, not above 1000 nM. The GI50 with HCT116 cells was not above 1000 nM.

As for `COCCN(C)c1cc(Nc2cc(C)[nH]n2)nc(-c2cccc(C(F)(F)F)c2)n1` [Compound 125, N^4-(2-methoxyethyl)-N^4-methyl-N^6-(5-methyl-1H-pyrazol-3-yl)-2-(3-(trifluoromethyl)phenyl)pyrimidine-4,6-diamine], the concentration for half-maximal inhibition (IC50) in experiment [1] (setting [2]) is not above 1000 nM; on recombinant Aurora A, not above 1000 nM; in the experiment with HCT116 cells, 1000 to 10000 nM.

Regarding `Cc1cc(Nc2cc(N3CCN(C)CC3)nc(-c3cccc4c3OCCO4)n2)n[nH]1` [Example 136, 2-(2,3-dihydrobenzo[b][1,4]dioxin-5-yl)-N-(5-methyl-1H-pyrazol-3-yl)-6-(4-methylpiperazin-1-yl)pyrimidin-4-amine], the concentration for half-maximal inhibition (IC50) was not above 1000 nM in experiment [1] (setting [2]), not above 1000 nM at recombinant Aurora A and 1000 to 10000 nM in the experiment on HCT116 cells.

On to `COCCN(C)c1cc(Nc2cc(C)[nH]n2)nc(-c2ccc3ccccc3c2)n1` [Example 149, N^4-(2-methoxyethyl)-N^4-methyl-N^6-(5-methyl-1H-pyrazol-3-yl)-2-(naphthalen-2-yl)pyrimidine-4,6-diamine], for which the half-maximal inhibitory concentration (IC50) is not above 1000 nM in experiment [1] (setting [2]), not above 1000 nM on recombinant Aurora A and 1000 to 10000 nM in the experiment on HCT116 cells.

As for `Cc1cc(Nc2cc(N3CCN(C)CC3)nc(-c3ccc(-c4ccccc4)cc3)n2)n[nH]1` [Example 157, 2-(biphenyl-4-yl)-N-(5-methyl-1H-pyrazol-3-yl)-6-(4-methylpiperazin-1-yl)pyrimidin-4-amine], the IC50 is not above 100 nM in experiment [1] (40 minutes at room temperature) and not above 1000 nM on recombinant Aurora A. Besides, the concentration for 50% growth inhibition (GI50) with HCT116 cells was not above 1000 nM.

For `COCCN(C)c1cc(Nc2cc(C)[nH]n2)nc(-c2ccc(OC)cc2)n1` [Compound 67, N^4-(2-methoxyethyl)-2-(4-methoxyphenyl)-N^4-methyl-N^6-(5-methyl-1H-pyrazol-3-yl)pyrimidine-4,6-diamine], the values for the concentration for half-maximal inhibition (IC50) (in experiment [1] (setting [2]); on recombinant Aurora A; with HCT116 cells) were not above 1000 nM, not above 1000 nM and 1000 to 10000 nM, respectively.

For `COCCN(C)c1cc(Nc2cc(C)[nH]n2)nc(-c2ccc(N(C)C)cc2)n1` [Compound 118, 2-(4-(dimethylamino)phenyl)-N^4-(2-methoxyethyl)-N^4-methyl-N^6-(5-methyl-1H-pyrazol-3-yl)pyrimidine-4,6-diamine], the half-maximal inhibitory concentration (IC50) in experiment [1] (40 minutes at room temperature) was not above 100 nM; at recombinant Aurora A, not above 1000 nM; with HCT116 cells it was 1000 to 10000 nM.

In the case of `COCCN(C)c1cc(Nc2cc(C)[nH]n2)nc(-c2ccccc2Cl)n1` [Compound 63], the concentration for half-maximal inhibition (IC50) in experiment [1] (setting [2]) is not above 1000 nM; on recombinant Aurora A, not above 1000 nM; with HCT116 cells, 1000 to 10000 nM.

For the origin of these results see patent US20090029992A1, “SUBSTITUTED PYRAZOLE COMPOUNDS” (priority 2007, published 2009).
